Reference: publication PMC9804871, “Effect of Opicapone on Levodopa Pharmacokinetics in Patients with Fluctuating Parkinson's Disease” (Movement Disorders, 2022)
Entries after “also recorded” stand apart in the source; their conditions may differ.

Assays:
[1] = 12-hour levodopa plasma pharmacokinetics; assay type: in vivo, human (patients with PD)
Protocol: The study design is illustrated in Figure 1.
Pharmacokinetic evaluation occurred over 12 hours with sampling every 30 minutes, except for the last sample following each LD dose in the opicapone plus four LD intake regimen, which was sampled at 1 hour. The main pharmacokinetics parameters assessed included maximum observed plasma concentration (Cmax), time to achieve peak plasma levels (tmax), minimum observed plasma concentration (Cmin), plasma elimination half‐life (t1/2), area under the curve (AUC), and fluctuation index (FI; as an expression of peak‐to‐trough fluctuation, Cmax, and Cmin, relative to average concentration [Cavg]). The pharmacokinetics of the LD metabolite 3‐O‐methyldopa (3‐OMD) was also evaluated.
Descriptive statistics were used to summarize the pharmacokinetics parameters for LD and 3‐OMD for each of the three regimens. […] No formal comparison was performed between opicapone regimens.

[2] = opicapone pivotal trials; average; cited from earlier work
[3] = opicapone 50 mg added to LD/CD 400/100 mg (both regimens) vs LD/CD 500/125 mg without opicapone

For `Cc1c(Cl)c(C)[n+]([O-])c(Cl)c1-c1noc(-c2cc(O)c(O)c([N+](=O)[O-])c2)n1` [opicapone], the “effect on LD minimal (trough) concentrations (Cmin)” value [1, 3] was “at least doubled; also recorded: twofold increase”, the “effect on LD plasma half-life (t1/2)” value [1, 3] was “at least doubled” and the “impact on time to reach (tmax) maximum LD concentrations” value ([1]; opicapone 50 mg added to either LD/CD 400/100 mg regimen) was “no impact”. For the same molecule, the “impact on maximal LD concentrations (Cmax)” value ([1]; opicapone 50 mg added to either LD/CD 400/100 mg regimen vs five-intake LD/CD 500/125 mg without opicapone) was “no significant impact” and the “reduction of off time relative to placebo” value [2] was 1 h.
